Results on 3 substances are retold here after publication PMC8776730 (Nature Communications, 2022).

Series [1] in a line: MIA PaCa-2 cells / Miapaca-2 cell lysis. The note with it: up to 2 h.
Series [2] relates to Recombinant Human Fibroblast Activation Protein-α (FAP-α). The experiment in a line: FAP-α in buffer: 50 mM Tris, 1 M NaCl, 1 mg/mL, BSA, pH 7.5. The note with it: up to 12 h.
Series [3] in a line: MIA PaCa-2 cells (supplement contents: Miapaca-2 cell lysis). Particulars: up to 2 h.
The test system of series [4] is MIA PaCa-2 tumor. The note with it: mouse, in vivo, 16 mg/kg. As for the experimental part: In order to reduce systemic error and individual difference, we constructed the subcutaneous pancreatic cancer model in mice for quantitatively calculating of the metabolic data.
All the animal experiments were performed in accordance with the Guide for the Care and Use of Laboratory Animals approved by the Committee for Animal Research of the National Center for Nanoscience and Technology. The MIA PaCa-2 tumor-bearing mice were intravenously injected with ICG, M1 and M2 (16 mg/kg), respectively for in vivo fluorescence imaging with in vivo spectrum imaging system. Finally, mice were sacrificed to collect the major organs and tumors for ex vivo fluorescence imaging.

For series [5] the following is noted: mouse, in vivo, iv, 16 mg/kg.
The subject of series [6] is MIA PaCa-2 cells. In words: Transwell migration assay. Particulars: for migrated cells (Fig S20): MIA PaCa-2 cells. The series is classed as cell-based. As for the experimental part:
(§1) Fig. 5 The BIVA effect with enhanced targeting to pancreatic tumor cell for boundaries imaging. a Illustration of BIVA effect: active targeting and assembly/aggregate induced retention (AIR) effect. b Chemical structure of FITC labeling. c 2D and 3D confocal images of M2 with active targeting property and M1 with BIVA effect on MIA PaCa-2 cells after incubation for 1 h. d The distribution of M1 on MIA PaCa-2 cell. e ThT staining of the lysed cell membrane of MIA PaCa-2. f, Illustration of migration inhibition after treated by BIVA probe. g The image of the migrated cells after treatment of PBS (blank), M2, M4, and M1. Scale bar: 100 μm. h The pie diagram of quantitative statistical calculation of the migrated cells (blue) in different groups. The blank control was set as 100% migrated cells.
In order to further understand the contribution of the active targeting and AIR effect during locating of the cells, the cell transwell experiment was used to quantitively evaluate interference of the cell migration based on M1, M2, and M4 (Fig. 5f). As expected, untreated cells were easy to migrate to the lower chamber, while the cells treated with active targeting molecule M2 and assembled molecule M4, the migration of cell were reduced. Under the same molar concentration, the M1 treatment group had the most inference on cell migration (Fig. 5g). […] Based on those results, we speculate M1 can be more enriched in the tumor site and form fibers through assembly to inhibit tumor cell migration compared to M2 and M4 which have no ability to target and adhere on the cell membrane.
Transwell migration assay occurred in chemotaxis chambers containing 24 wells. […] Bottom chambers contained DMEM medium containing 10% FBS. After 24 h of treatment with M1, M2, and M4 (150 μM), we fixed cells using 4% paraformaldehyde and stained with 0.25% crystal violet solution. The stained cells were counted using a microscope.
Supplementary Fig. 20∣ The quantitative results of the migrated cells after treatment of PBS (blank), M2, […] and
M1 (Fig 5g). The mean of results of fiveparallel experiments is shown and data were expressed as mean ± SD (n=5).
pM1 = 5.85E-06, pM2 = 5.94E-05, pM4 = 3.16 E-04, Statisticalanalysis: one-way ANOVA followed by post hoc Tukey’s
(§2) (1 picture or pasted object on this page, not shown here)

For series [7], the system named is MIA PaCa-2 cells. In words: Cellular imaging (CLSM) of FITC-labelled molecules. The series is classed as cell-based. As for the experimental part: To further confirm this hypothesis, the M1 and M2 were equally labeled by FITC for cell imaging (Fig. 5b). To simulate the dynamic physiological condition, the cell culture medium was replaced every 15 min. After 1 h of incubation with M1 and M2 at the same molecule molar concentration, there occurred significant differences between the two molecules (Fig. 5c). […] The huge difference can be explained by the fact that the secondary assembly rate broke the balance between the targeted ligand and receptor, and thus tended to a stable assembly interaction. The retention efficiency depended on the assembly rate constant Ka. Meanwhile, the rapid dynamic assembly of BIVA probe in situ around the cell membrane, and contributed to the efficient formation and retention of nanofibers on the cell profile. When the incubation time was delayed up to 2 h, some components could be endocytosed into the cells, but most of them were found on the membranes (Supplementary Fig. 18). […] Then, the isolated cells were collected and lysed, the extracted cell membrane fragments were stained with ThT. […] In order to verify the influence of the addition of the targeting module of the probe molecules, we explored the imaging of R-M1 and M4 on cells.
as §1
MIA PaCa-2 cells were digested with trypsin, counted with cell counting plate, diluted to 1 × 10^4 with DMEM medium, and 1 mL to 1 cm diameter confocal microscope dish was taken. The cells were incubated in […] atmosphere for 24 h. The medium containing M1 and M2 (50 μM) was replaced and incubated with the cells for 2 h. The cells were washed with PBS for 3 times. CLSM (Zeiss 710) was used to image cells under 40 × objective, excitation = 488 nm, and emission >520 nm.
Supplementary Fig. 19 ∣ CLSM images of Miapaca-2 cells treated with different molecules or M1 under different conditions. […]

For series [8], the system named is MIA PaCa-2 cells. In words: Cytotoxicity, CCK-8 assay. The series is classed as cell-based. Particulars: CCK-8, 24 h, at high concentration of 300 μM. The protocol: The cytotoxicity of M1 and M2 was evaluated using CCK-8 assay in MIA PaCa-2 cells. Cells were seeded into 96-well plates at a density of 5 × 10^4 cells per well and placed in an incubator for 14 h. Subsequently, the sample was diluted into a series of different concentrations (0, 50, 100, 150, 200, 250, 300, and 350 μM) and incubated with cells for 24 h. After that, 10 μL of CCK-8 solution was added to each well and incubated for 2 h. The absorbance of blank wells (Ab), sample wells (As) and control wells (Ac) were measured with a microplate reader at a test wavelength of 450 nm and a reference wavelength of 690 nm. The cell viability rate (%) is equal to (As -Ab) / (Ac -Ab) ×100%. All experiments were repeated in triplicate.
Supplementary Fig. 21∣ Cellviability assay of Miapaca-2 cells treated with a series concentration of M1 and M2 for 24 h.
Tested by Cell Counting Kit-8 (Beyotime, C0039) The mean of results of six parallel experiments isshown and data were
expressed as mean ± SD (n=6).
as §2

Series [9] in a line: Nanofiber dynamic growth, ThT staining. Type of series: physicochemical. The note with it: aggregation curve with ThT trace.
The nature of series [10]: Secondary structure proportions from CD spectra. The series is classed as physicochemical. Particulars: calculated by Reed's Reference based on CD spectra; DI water. The source says:
To further evaluate the assembled structures, the corresponding circular dichroism (CD), Fourier transform infrared (FTIR) spectroscopy, and wide-angle X-ray scattering (WAXS) spectroscopy were applied. […] The FITR spectra of M1 and M3 in Fig. 3b observed the intermolecular interactions. The peaks at 1629 cm^−1, 1675 cm^−1, and 1698 cm^–1 of M3 indicated anti-parallel β-sheet structure (represent by green arrow heads), peaks at 1648 cm^−1 and 1663 cm^−1 indicated parallel beta sheet structure (represent by blue arrow heads), the existence of 1654 cm^−1 indicate α-Helix structure in M1 which verified the results deduced by CD in Fig. 3a[29],[30]. […] As a homologous sequence with amyloid β-protein (Aβ), the self-assembly motif with peptide sequence of KLVFFGCG had similar aggregation kinetics to (Aβ)42 peptide, which occurred via dynamic growth from oligomers to amyloid fibrils. The aggregation started from the freshly isolated monomers of R-M1, and precipitates were separated in 1 min and 1 h, respectively. […] After analyzed the CD spectra of M1, M3, and R-M1 (Fig. 3e), it can be clearly seen that the main secondary conformation of M1 was Random, the M3 was hybrid of Helix and Beta, and the R-M1 was Beta (Supplementary Table 1). All the results confirmed the conclusion from FTIR spectra. […] The dynamic growth procedure was like the 8-anilino-1-naphthalenesulfonic acid (ANS) stained curve (Supplementary Fig. 12). As known, ANS was sensitive to hydrophobic interaction. When R-M1 were in the initial oligomer, the fluorescence intensity of ANS increased due to the enhanced hydrophobicity. When the molecules were elongated and stacked in higher ordered nanofibrils, the blue shift of ANS in the β-sheet structures reduced the fluorescence. The molecular packing mode of well-ordered fibrils of R-M1 in Fig. 3g observed a weak reflection at 4.9 Å as laminates space and a strong broad reflection at 10.3 Å as sheet space, which was illustrated in the inserted figure. The fibril morphology was characterized by transmission electron microscopy (TEM) imaging (Fig. 3f). The statistical calculation of the fiber diameter in TEM images was 5.0 ± 0.4 nm (Supplementary Fig. 13), which was corresponded to the theoretical calculated two molecules length of R-M1. We assumed that the nanofibers were assembled by twisted R-M1 molecules centered on self-assembly motif.
The secondary structures of M1, M3 and R-M1 were verified by CD spectroscopy (JASCO Corporation, JC-1500) at room temperature with a cell path length of 1 cm. M1, […] and R-M1 were diluted to 100 μM with deionized water at 25 °C and allowed to stand for 12 h for complete assembly. Detail parameter setting were CD scale:200 mdeg/1.0Dod, measure range: 260~190 nm, scanning speed: 500 nm/min, bandwidth: 1.00 nm, and data pitch: 0.5 nm. All spectra were the average of three measurements.
Supplementary Table 1∣ Secondary structure proportions ofM1, M3 and R-M1 calculated by Reed’s Reference based on […]

The nature of series [11]: Critical assembly concentration (CAC) by pyrene fluorescence probe. The series is classed as physicochemical. The note with it: for I1/I3: pyrene fluorescence. The source says: In order to study the molecular design and their assembly behavior, we modular designed and synthesized seven molecules (Table 1), which respectively were BIVA probe: M1 (mPEG-GPAKLVFFGC(IR783)GRGD); the non- FAP-α tailoring molecule: M2 (mPEG-AGGKLVFFGC(IR783)GRGD) scrambled response tailoring motif of Gly-Pro-Ala with Ala-Gly-Gly; the non-labeling molecule of M1: M3 (mPEG-GPAKLVFFGCGRGD) removed IR783 labeling; FAP-α tailoring residue of M1: R-M1 (AKLVFFGC(IR783)GRGD); the non-targeting molecule: M4 (mPEG-GPAKLVFFGC(IR783)GDTG) scrambled targeting tailoring motif of Arg-Gly-Asp with Asp-Thr-Gly; the non-labeling molecule of M2: M5 (mPEG-AGGKLVFFGCGRGD) removed IR783 labeling; FAP-α tailoring residue of M3: R-M3 (AKLVFFGCGRGD). All the synthesized procedure (Supplementary Fig. 1) and characterizations of these seven molecules can be found in SI (Supplementary Figs. 2–8). […] Without IR783 labeling, molecules of M3 and M5 decreased the CAC value in solution relative to M1 and M2, which could be attributed to the proximity of the steric hindrance of hydrophilic IR783 to the self-assembly motif (Supplementary Fig. 9). […] The CAC was quantitatively calculated by fluorescence probe of pyrene.

Take mPEG-GPAKLVFFGC(IR783)GRGD: the values for the fragment found result in series [1] and in [3] were “PEG residues” and “R-M1”, respectively. The cleaved bond result in series [2] was “Pro-Ala”.
For the substance mPEG-AGGKLVFFGC(IR783)GRGD [M2], in series [4], the “reduction of tumor fluorescence signal between 12 h and 120 h” value is “disappeared completely”. For the same substance, the “time of distribution and accumulation in the tumor area” value in series [4] (iv) fell in the range of 0.1 to 24 h. Also, in series [5], the “blood circulation half-life (t1/2)” value was determined as 1.7 ± 0.067 h. The “emigrate (migrated cells relative to blank)” value in series [6] (MIA PaCa-2, 150 μM, 24 h, blank control = 1) is recorded as 0.6397. The “migrated cells (Fig S20)” value was determined as 587 in series [6] (averge of groups 1-3), 547 in series [6] (group 1), 625 in series [6] (group 2) and 589 in series [6] (group 3). Besides, the “fluorescence signal on the cell membrane” value in series [7] (FITC-labelled molecules, MIA PaCa-2 cells, 1 h incubation, CLSM) is given as “significantly reduced the fluorescence signal”. Further, the cytotoxicity result in series [8] is recorded as “no obvious cytotoxicity”.
Substance “AKLVFFGC(IR783)GRGD [R-M1, FAP-α tailoring residue of M1]” yielded a final plain phase in series [9] of more than 30 min. For the same substance, the Secondary structure proportion: Beta in series [10] was 72%. In addition, the Secondary structure proportion: Helix in [10] is 0.5%. The Secondary structure proportion: Random in series [10] is 0%. Further, the Secondary structure proportion: Turn in series [10] is 27.5%. In [7] (co-incubation with MIA PaCa-2 cells), the “state in the medium (solubility)” value is given as “insoluble suspended mixture”. Also, the “Critical assembly concentration (CAC)” value in [11] (aqueous solution, analyzed based on pyrene fluorescence) is 37.2 µM. Besides, the I1/I3 was 1.233 in series [11] (conc 1.56 μM); 1.275 in series [11] (conc 12.5 μM); 1.246 in series [11] (conc 25 μM); 1.302 in series [11] (conc 100 μM); 1.43 in series [11] (conc 200 μM).
